These results are taken from patent publication US9844521B2, “Pharmaceutical composition comprising ginger extract or shogaol” (UNIVERSITY-INDUSTRY COOPERATION GROUP OF KYUNG HEE …, priority 2008, dated 2017).

One data set relates to PC12 cells. Kind of data set: Neurite outgrowth of PC12 cells treated with conditioned media of C6 cells. The class given is cell-based, mouse. To be noted: 20 μM in C6 conditioned media, microscope, fourth day after treatment. The protocol: This test was performed using a glioma C6 cell line of […] which is known as a cell line that secretes a nerve growth factor (NGF), and a pheochromocytoma PC12 cell line of […] which is known as a cell line that grows neurite with respect to an NGF in a similar way as a neuron. C6 cells and PC12 cells were obtained from Korean Cell Line Bank (KCLB Nos. 10107 and 21721, respectively). C6 cells were cultured using DMEM media (Gibco BRL, USA) supplemented with 3.4 g/L of sodium bicarbonate (NaHCO3), 10% fetal bovine serum, and 1% penicillin-streptomycin antibiotics (10000 U/ml), and PC12 cells were cultured using RPMI1640 medium (Gibco BRL, USA) supplemented with 2.0 g/L of sodium bicarbonate, 10% horse serum, 5% fetal bovine serum, and 1% penicillin-streptomycin antibiotics (10000 U/ml). […]
C6 cells attached to a 100 mm culture vessel were separated from the culture vessel by using 0.25% Trypsin-EDTA (Gibco BRL, USA), and then 10 ml of fresh medium was added to the cells to prepare a cell suspension. Then, the number of viable cells was counted and calculated by using a cell number counter. The cells were divided based on the counted cell number such that 2×10^6 cells were contained in a 100 mm culture dish. […]

The next data set relates to E. coli WP2 uvrA. Kind of data set: Back mutation test (genotoxicity in bacteria), E. coli strain. To be noted: compared with negative control. Here is the method: (§1) In order to evaluate genotoxicity in bacteria, a back mutation test was performed using histidine-requiring salmonella typhimurium strains (TA 100, TA 1535, TA 98, and TA 1537) and an E. coli strain (E. coli WP2 uvrA). As a result, a positive control has a substantially greater colony number than a negative control. […] Accordingly, it was confirmed that the ginger extract and shogaol all had stability in the genotoxicity test.

Data set [1] relates to rat primary mesencephalic dopaminergic cells. In words: Protection of dopamine cells against MPP+ neurotoxicity (TH immunohistochemistry). The class given is cell-based. To be noted: 0.01 μM, 10 μM MPP+ for 23 hours; MPP+ group 44.25±7.61% of a control. Here is the method: Female Sprague-Dawley rats (2-week old) were used, and shogaol was obtained from WAKO Company (Japan).
Fetal mesencephalon tissues of Sprague-Dawley rats […] were desquamated, and mechanically dissociated by using a forcept. The tissues were treated with trypsin and the number of cells was counted, and the cells were seeded on a cover slip coated with poly-L-lysine (PLL), and then proliferated in an incubator including 5% CO2 and 95% air at a temperature of 37 °C for 5 days. A fetal bovine serum (FBS)-free media was treated with 0.01 μM or 0.1 μM of shogaol after the shogaol was diluted, or the ginger extract (the ethanol extract, the hexane fraction, the ethyl acetate fraction, the butanolfraction, and the water fraction prepared according to Example 1) after the ginger extract was diluted. […]
Cells immobilized by using 4% PFA were washed with PBS and then, dehydrated with 1% hydrogen peroxide for 15 minutes. […] After the color-producing using DAB, a cover slip was separated and then mounted on a slide by using a gel mount and the number of cells was counted.
Cells were color-produced by immunohistochemistry in the same manner as Experimental Example 3-1, and the number of cells was counted and the results are shown in FIGS. 8 and 9.

Another data set concerns C6 cells. Kind of data set: Nerve growth factor secretion induction in C6 cells (NGF measurement kit). It counts as cell-based, mouse. To be noted: conditioned media of C6 cells, mean±standard deviation. The protocol: This test was performed using a glioma C6 cell line of […] which is known as a cell line that secretes a nerve growth factor (NGF), and a pheochromocytoma PC12 cell line of […] which is known as a cell line that grows neurite with respect to an NGF in a similar way as a neuron. C6 cells and PC12 cells were obtained from Korean Cell Line Bank (KCLB Nos. 10107 and 21721, respectively). C6 cells were cultured using DMEM media (Gibco BRL, USA) supplemented with 3.4 g/L of sodium bicarbonate (NaHCO3), 10% fetal bovine serum, and 1% penicillin-streptomycin antibiotics (10000 U/ml), and PC12 cells were cultured using RPMI1640 medium (Gibco BRL, USA) supplemented with 2.0 g/L of sodium bicarbonate, 10% horse serum, 5% fetal bovine serum, and 1% penicillin-streptomycin antibiotics (10000 U/ml). The fetal bovine serum and the horse serum were inactivated at a temperature of 55[…] for 30 minutes before use, and all of the cells were cultured in a cell culture vessel with a humidity of 70% at a temperature of 37[…] to which 5% carbon dioxide was supplied. Regarding the PC12 cells, the cells were cultured in a culture vessel that was surface-coated with poly-D-lysine (Sigma) diluted with 50 μg/ml of a PBS buffer solution (pH 7.2) for 1 hour and then washed three times with a PBS buffer solution. Shogaol used was obtained from WAKO Company (Japan).
C6 cells attached to a 100 mm culture vessel were separated from the culture vessel by using 0.25% Trypsin-EDTA (Gibco BRL, USA), and then 10 ml of fresh medium was added to the cells to prepare a cell suspension. Then, the number of viable cells was counted and calculated by using a cell number counter. The cells were divided based on the counted cell number such that 2×10^6 cells were contained in a 100 mm culture dish. After 24 hours of cultivation, the used media was removed and replaced with 10 ml of a DMEM medium containing 2% fetal bovine serum, to which 100 ug/ml of each of the ethanol extract, the n-hexane fraction, the ethyl acetate fraction, the n-butanol fraction, and the water fraction prepared according to Example 1 was added. After 24 hours of cultivation, the respective media were obtained. The obtained media were centrifuged at a rate of 1500 rpm for 10 minutes and then a supernatant was collected, and these media (conditioned media) were used to treat PC12 cells.
The C6 cells were divided and treated with 0.1, 1, 5, 10, and 20 μM of shogaol in the same manner as in Experimental Example 1-1 to prepare conditioned media.
A nerve growth factor secreted from C6 cells by shogaol was quantified by treating a nerve growth factor measurement kit (DY556, R&D system, USA) with the conditioned media. In order to identify an effect of shogaol on nerve growth factor secretion induction, a nerve growth factor in the conditioned media prepared by culturing C6 cells after the cells were treated with shogaol was quantified and the results are shown in FIG. 2.

Another data set concerns SD rats. Kind of data set: Acute toxicity test. To be noted: 0.1 mg/10 ml/kg to 5000 mg/10 ml/kg, 2 weeks.
Data set [2] deals with salmonella typhimurium strains (TA 100, TA 1535, TA 98, and TA 1537). In words: Back mutation test (genotoxicity in bacteria), Salmonella strains. The following applies: TA 100, TA 1535, TA 98, TA 1537; compared with negative control. The protocol: as §1

Consider `CCCCC/C=C/C(=O)CCc1ccc(O)c(OC)c1` [shogaol, (E)-1-(4-hydroxy-3-methoxyphenyl)dec-4-en-3-one], for which the “growth of neurite of the PC12 cells” value in the data set with PC12 cells is on record as “increased”. Further, the “colony number (back mutation)” value (in the data set on E. coli WP2 uvrA; in data set [2]) was “the colony number was not increased” in each case. The “number of dopamine positive cells” value in data set [1] amounted to 91.50±3.38%. The “secretion amount of a nerve growth factor” value was 105.46±7.27 % of a control with C6 cells (0.1 μM); 112.72±3.67 % of a control in the data set with C6 cells (1 μM); 112.97±4.97 % of a control with C6 cells (5 μM); 119.44±5.18 % of a control with C6 cells (10 μM); 124.81±5.61 % of a control in the data set on C6 cells (20 μM). For the same compound, the body weight entry with SD rats is “weight change with respect to a test material did not occur”. Further, in the data set with SD rats, the general symptom result is recorded as “abnormal symptoms with respect to a test material were not found”.
